Patent publication US8013006B2

System: HCV replicon
Assay: microbe, parasite or virus in culture
Type: cell-based
Details: Hepatitis C virus, 48 h, read-out: Replicon IC5Os μM

Compound | IC50 [µM]
CC(=O)OCc1c(OC(C)=O)ccc2c([N+](=O)[O-])c(C)n(-c3ccc(C)cc3)c12 [Compound 1] | > 2

Same assay, conditions: Replicon IC50 values are determined by firefly luciferase signal; bicistronic replicon, 2 days; read-out: Replicon IC5Os

Compound | IC50 [µM]
COc1ccc(-n2c(C)c([N+](=O)[O-])c3cc(CN(C)C)c(O)cc32)cc1 [Compound 3] | > 2
CC(C)n1cc(C#N)c2ccc(O)cc21 [Compound 6] | > 2
COc1ccc2c(C#N)cn(-c3ccc(C)c(C)c3)c2c1 [Compound 8] | 0.5 to 2
CCCCOc1ccc2c(C#N)cn(CC)c2c1 [Compound 11] | > 2
CCn1cc(C#N)c2ccc(OCc3ccccc3)cc21 [Compound 12] | 0.5 to 2
CCOC(=O)c1cn(CC)c2cc(OC)ccc12 [Compound 17] | > 2
CCn1cc(C#N)c2ccc(OC(F)F)cc21 [Compound 18] | > 2
CCn1c(-c2ccoc2)c(C#N)c2ccc(OC)cc21 [Compound 20] | > 2
CCn1c(-c2ccccc2)c(C#N)c2ccc(OC)cc21 [Compound 21] | > 2
CCn1cc(C#N)c2ccc(-n3cccc3)cc21 [Compound 27] | 0.5 to 2
CCn1cc(-c2noc(C3CC3)n2)c2ccc(OC)cc21 [Compound 29] | > 2
CCNc1c(C(=O)OC)c2ccc([N+](=O)O)cc2n1CC [Compound 30] | > 2
CCn1cc(C(=O)c2ccccc2)c2cc(OC)ccc21 [Compound 32] | > 2
CCn1cc(C(=O)c2ccccc2)c2ccc(OC)cc21 [Compound 33] | > 2
CCC(=O)c1cn(CC)c2cc(OC)ccc12 [Compound 34] | > 2
CCn1cc(C(=O)C(C)C)c2ccc(OC)cc21 [Compound 37] | > 2
CCn1cc(C(=O)c2cccc(OC)c2)c2ccc(OC)cc21 [Compound 38] | > 2
CCn1cc(C(=O)c2cccc(OC)c2)c2cc(OC)ccc21 [Compound 39] | > 2
COc1ccc(-c2c[nH]c3ccc([N+](=O)O)cc23)cc1 [Compound 40] | > 2
COc1ccc(-n2cc(C(C)=O)c3cc(OC)ccc32)cc1 [Compound 42, 1-[5-methoxy-1-(4-methoxyphenyl)-1-H-indol-3-yl]-ethanone] | > 2
CC(C)n1cc(C#N)c2cc3c(cc21)OCO3 [Compound 43] | > 2
CCOC(=O)c1c(C)n(-c2ccc(OC)cc2)c2cc(OC(F)F)ccc12 [Compound 46] | > 2
COc1ccc(-n2cc(C(=O)c3ccc(F)cc3)c3ccc(OC)cc32)cc1 [Compound 47] | > 2
N#Cc1cn(C(F)F)c2cc(OC(F)F)ccc12 [Compound 50] | > 2

Compound | IC50 [µM]
CC(C)n1cc(C#N)c2cc3c(cc21)OCCO3 [Compound 52] | > 2
CCn1cc(-c2ccno2)c2ccc(C(=O)OC)cc21 [Compound 60] | > 2
CCn1cc(-c2ccn[nH]2)c2ccc(C(=O)OC)cc21 [Compound 61] | > 2
CCOC(=O)c1cn(CC)c2cc3c(cc12)OCO3 [Compound 62] | > 2
CCn1c(-c2ccc(C(C)(C)C)cc2)c(C#N)c2ccc(OC)cc21 [Compound 63] | > 2
CCn1c(C#Cc2ccccc2)c(C#N)c2ccc(OC)cc21 [Compound 64] | > 2
CCn1c(C#Cc2ccc(OC)cc2)c(C#N)c2ccc(OC)cc21 [Compound 65] | 0.5 to 2
CCn1c(C#Cc2cccc(OC)c2)c(C#N)c2ccc(OC)cc21 [Compound 66] | > 2
CCn1c(C#Cc2ccc(C)cc2)c(C#N)c2ccc(OC)cc21 [Compound 68] | 0.5 to 2
CCOc1ccc(-c2c(C#N)c3ccc(OC)cc3n2CC)cc1 [Compound 70] | > 2
CCn1c(-c2ccc(C(=O)N(C)C)cc2)c(C#N)c2ccc(OC)cc21 [Compound 71] | > 2
CCn1c(-c2ccc(OC)c(F)c2)c(C#N)c2ccc(OC)cc21 [Compound 74] | > 2
COc1ccc(-c2c(C#N)c3ccc(OC)cc3n2C)cc1 [Compound 76] | > 2
CCOc1ccc(-c2c(C#N)c3ccc(OC)cc3n2C)cc1 [Compound 77] | > 2
CCn1cc(-c2nccs2)c2ccc(C(=O)OC)cc21 [Compound 78] | > 2
CCn1c(-c2ccc(C(C)C)cc2)c(C#N)c2ccc(C(N)=O)cc21 [Compound 79] | > 2
CCn1c(-c2ccc(NS(=O)(=O)CC)cc2)c(C#N)c2ccc(OC)cc21 [Compound 83] | < 0.5
COc1ccc2c(C#N)c(-c3ccc(NS(C)(=O)=O)cc3)n(C3CCC3)c2c1 [Compound 87] | < 0.5
COc1ccc(-n2cc(C#N)c3ccc(C(=O)NO)cc32)cc1 [Compound 89] | 0.5 to 2
COc1ccc(-n2cc(C#N)c3ccc(NC(=O)OC(C)(C)C)cc32)cc1 [Compound 90] | > 2
COc1ccc(C#Cc2c(C#N)c3ccc(OC)cc3n2C)cc1 [Compound 92] | > 2
COc1ccc2c(C#N)c(C#Cc3ccc(F)cc3)n(C)c2c1 [Compound 93] | > 2
COc1ccc(-n2cc(C#N)c3ccc(NC(=O)NC(C)(C)C)cc32)cc1 [Compound 98] | > 2
COc1ccc2c(C#N)c(-c3cccc(C)c3)n(C)c2c1 [Compound 100] | > 2

Compound | IC50 [µM]
COc1ccc(-n2cc(C#N)c3ccc(F)cc32)cc1 [Compound 102] | > 2
COc1ccc(-n2cc(C#N)c3ccc(C)cc32)cc1 [Compound 103] | > 2
COc1ccc(-n2cc(-c3nc(C(C)(C)C)cs3)c3ccc(C(N)=O)cc32)cc1 [Compound 104] | 0.5 to 2
COC(=O)c1ccc2c(-c3nc(-c4ccncc4)cs3)cn(-c3ccc(OC)cc3)c2c1 [Compound 105] | > 2
COc1ccc(-n2cc(-c3nc(-c4ccc(Cl)c(Cl)c4)cs3)c3ccc(C(N)=O)cc32)cc1 [Compound 106] | > 2
CCn1cc(C#N)c2cc(Br)ccc21 [Compound 108] | > 2
CCCn1cc(C#N)c2cc(Br)ccc21 [Compound 109] | > 2
CCOC(=O)c1ccc(-c2c(C#N)c3ccc(OC)cc3n2CC)cc1 [Compound 110] | 0.5 to 2
Cc1ccc2c(C#N)cn(-c3ccc4c(c3)OCO4)c2c1 [Compound 112] | 0.5 to 2
CCn1c(-c2ccc(C(=O)N3CCCC3)cc2)c(C#N)c2ccc(OC)cc21 [Compound 113] | > 2
CCn1c(-c2ccc(C(=O)N3CCOCC3)cc2)c(C#N)c2ccc(OC)cc21 [Compound 114] | > 2
N#Cc1c[nH]c2cc(Cl)ccc12 [Compound 115] | > 2
COc1ccc(-n2cc(C#N)c3ccccc32)cc1 [Compound 117] | > 2
CCn1cc(C#N)c2ccc(Cl)cc21 [Compound 118] | 0.5 to 2
CCn1c(-c2ccc(NC(=O)OCc3ccccc3)cc2)c(C#N)c2ccc(OC)cc21 [Compound 122] | > 2
CCn1cc(C#N)c2ccc(C(F)(F)F)cc21 [Compound 123] | > 2
Cc1ccc2c(C#N)c(C)n(-c3ccc4c(c3)OCO4)c2c1 [Compound 125] | 0.5 to 2
CCn1cc(C#N)c2ccc(Br)cc21 [Compound 126] | > 2
COc1ccc(-n2cc(C#N)c3ccc(Br)cc32)cc1 [Compound 127] | > 2
CCn1c(C#Cc2cccc3ccccc23)c(C#N)c2ccc(OC)cc21 [Compound 133] | 0.5 to 2
CCn1c(C#Cc2ccccc2Br)c(C#N)c2ccc(OC)cc21 [Compound 136] | 0.5 to 2
CCn1c(C#Cc2ccc(OC)cc2C)c(C#N)c2ccc(OC)cc21 [Compound 137] | 0.5 to 2
CCn1cc(C#N)c2cc(-c3cccs3)ccc21 [Compound 140] | > 2
CCn1cc(C#N)c2cc(-c3ccoc3)ccc21 [Compound 142] | > 2

Compound | IC50 [µM]
CCn1c(C#Cc2ccc(N3CCCCC3)cc2)c(C#N)c2ccc(OC)cc21 [Compound 143] | > 2
CCn1c(C#Cc2cccc(Cl)c2)c(C#N)c2ccc(OC)cc21 [Compound 146] | 0.5 to 2
CCn1c(C#Cc2ccc(N(C)C)cc2)c(C#N)c2ccc(OC)cc21 [Compound 147] | 0.5 to 2
CCn1c(C#Cc2ccc(Cl)cc2)c(C#N)c2ccc(OC)cc21 [Compound 148] | 0.5 to 2
CCOc1ccc(C#Cc2c(C#N)c3ccc(OC)cc3n2CC)cc1 [Compound 149] | 0.5 to 2
CCn1c(C#Cc2ccccc2F)c(C#N)c2ccc(OC)cc21 [Compound 150] | 0.5 to 2
CCn1c(C#Cc2cccc(F)c2)c(C#N)c2ccc(OC)cc21 [Compound 151] | 0.5 to 2
CCn1c(C#Cc2ccc(NC(=O)C(C)C)cc2)c(C#N)c2ccc(OC)cc21 [Compound 152] | > 2
CCn1c(C#Cc2ccc(OC)c(OC)c2)c(C#N)c2ccc(OC)cc21 [Compound 159] | 0.5 to 2
CCn1c(C#Cc2ccc(NC(=O)[C@@H]3CCCN3)cc2)c(C#N)c2ccc(OC)cc21 [Compound 162] | > 2
CCn1c(C#Cc2ccc(NC(=O)c3c[nH]cn3)cc2)c(C#N)c2ccc(OC)cc21 [Compound 163] | 0.5 to 2
CCC(=O)Nc1ccc(C#Cc2c(C#N)c3ccc(O)cc3n2CC)cc1 [Compound 164] | 0.5 to 2
CCn1c(C#Cc2ccc(NC(=O)CN)cc2)c(C#N)c2ccc(OC)cc21 [Compound 165] | > 2
CCn1c(C#Cc2ccccc2N)c(C#N)c2ccc(OC)cc21 [Compound 169] | 0.5 to 2
CCn1c(C#Cc2cccs2)c(C#N)c2ccc(OC)cc21 [Compound 170] | 0.5 to 2
CCn1c(C#Cc2ccsc2)c(C#N)c2ccc(OC)cc21 [Compound 171] | 0.5 to 2
CCn1c(C#Cc2ccccn2)c(C#N)c2ccc(OC)cc21 [Compound 174] | 0.5 to 2
CCn1c(C#Cc2ccc(OC)cc2)c(C#N)c2cc(OC)ccc21 [Compound 177] | 0.5 to 2
CCn1c(C#Cc2ccc(C(F)(F)F)cc2)c(C#N)c2cc(OC)ccc21 [Compound 178] | > 2
CCn1cc(C#N)c2cc(C(F)(F)F)ccc21 [Compound 179] | 0.5 to 2
CCn1c(-c2ccc(N(C)S(=O)(=O)CC)cc2)c(C#N)c2ccc(OC)cc21 [Compound 181] | 0.5 to 2
CCn1c(C#Cc2cccc3ccccc23)c(C#N)c2ccc(O)cc21 [Compound 184] | 0.5 to 2
CCn1c(C#Cc2ccc(OC)cc2)c(C#N)c2ccc(O)cc21 [Compound 186] | 0.5 to 2
